Each structure is given as a SMILES string. Toxic doses and inconclusive results are not listed.

The experiment concerns L1210 leukemia ip in BDF1 mice, survival T/C. Kind of experiment: NCI In Vivo Anticancer Drug Screen. Data for tumor model L1210 Leukemia (intraperitoneal) in B6D2F1 (BDF1) mice. Conditions: endpoint: mean survival time, higher = longer survival. In outline: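 Ratio derived from survival: compound-dosed mice over vehicle-dosed mice, all bearing a transplantable tumor.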
Setting [1] is: dose: 100.0 mg/kg/injection, schedule: Q04DX003 (ip), vehicle: saline with Tween-80.
Setting [2] is: dose: 200.0 mg/kg/injection, schedule: Q04DX003 (ip), vehicle: saline with Tween-80.
Where [3] appears, read: dose: 400.0 mg/kg/injection, schedule: Q04DX003 (ip), vehicle: saline with Tween-80.
Where [4] appears, read: dose: 75.0 mg/kg/injection, schedule: Q01DX001 (ip), vehicle: saline.
[5] abbreviates: dose: 100.0 mg/kg/injection, schedule: Q01DX009 (ip), vehicle: saline with Tween-80.
Setting [6] is: dose: 200.0 mg/kg/injection, schedule: Q01DX009 (ip), vehicle: saline with Tween-80.
Where [7] appears, read: dose: 100.0 mg/kg/injection, schedule: Q01DX009 (ip), vehicle: saline.
The mark [8] stands for this setting: dose: 100.0 mg/kg/injection, schedule: Q04DX003 (ip), vehicle: saline.
[9] abbreviates: dose: 200.0 mg/kg/injection, schedule: Q04DX003 (ip), vehicle: saline.
Setting [10] is: dose: 100.0 mg/kg/injection, schedule: Q01DX009 (ip), vehicle: other.
Setting [11] is: dose: 200.0 mg/kg/injection, schedule: Q01DX009 (ip), vehicle: other.

`O=c1oc(Cl)c(Cl)c(Cl)c1Cl`: the T/C (dose: 2.2 mg/kg/injection, schedule: Q01DX Z (ip), vehicle: methylcellulose (MC)) is 93 % of control.
Consider `CCOC(=O)C(Cc1ccccc1)C(=O)OCC`, for which the T/C is 96 % of control under setting [1], 97 % of control under setting [2] and 96 % of control under setting [3].
As for `NNC(=O)c1ccc[nH]1`, under setting [4], the T/C is 102 % of control.
On to `CC1(c2ccco2)C(=O)NC(=O)N1C(=O)CCl` (stereo not drawn), for which the T/C by setting is: under setting [5], 112 % of control; under setting [1], 96 % of control; under setting [6], 101 % of control; under setting [2], 103 % of control; under setting [3], 101 % of control.
As for `COCc1ccc(COC)cc1`, the T/C under setting [7] is 96 % of control; the T/C under setting [8] is 103 % of control; the T/C (dose: 200.0 mg/kg/injection, schedule: Q01DX009 (ip), vehicle: saline) was 95 % of control; the T/C under setting [9] was 108 % of control; the T/C (dose: 400.0 mg/kg/injection, schedule: Q01DX009 (ip), vehicle: saline) was 98 % of control; the T/C (dose: 400.0 mg/kg/injection, schedule: Q04DX003 (ip), vehicle: saline) is 100 % of control.
`CCC(=O)c1ccc(OCC(CN2CCN(c3ccccc3OC)CC2)OC(C)=O)cc1` (stereo not drawn): the T/C under setting [1] is 97 % of control, the T/C under setting [2] was 105 % of control and the T/C under setting [3] is 100 % of control.
As to `CC1C[N-]1.CC1C[N-]1.[Cl][Pt+2][Cl]` (stereo not drawn), the T/C (dose: 25.0 mg/kg/injection, schedule: Q01DX009 (ip), vehicle: saline) was 102 % of control; the T/C (dose: 50.0 mg/kg/injection, schedule: Q01DX009 (ip), vehicle: saline) is 103 % of control; the T/C (dose: 50.0 mg/kg/injection, schedule: Q04DX003 (ip), vehicle: saline) is 95 % of control; the T/C under setting [7] is 101 % of control; the T/C under setting [8] was 98 % of control; the T/C under setting [9] was 98 % of control.
As to `CC(=O)NC1CCCCC1CC1CCCCC1` (stereo not drawn), the T/C (dose: 75.0 mg/kg/injection, schedule: Q01DX009 (ip), vehicle: Klucel (hydroxypropylcellulose) (HPC)) was 103 % of control; the T/C (dose: 100.0 mg/kg/injection, schedule: Q04DX003 (ip), vehicle: Klucel (hydroxypropylcellulose) (HPC)) is 102 % of control; the T/C (dose: 150.0 mg/kg/injection, schedule: Q01DX009 (ip), vehicle: Klucel (hydroxypropylcellulose) (HPC)) is 93 % of control; the T/C (dose: 200.0 mg/kg/injection, schedule: Q04DX003 (ip), vehicle: Klucel (hydroxypropylcellulose) (HPC)) was 98 % of control; the T/C (dose: 300.0 mg/kg/injection, schedule: Q01DX009 (ip), vehicle: Klucel (hydroxypropylcellulose) (HPC)) is 96 % of control; the T/C (dose: 400.0 mg/kg/injection, schedule: Q04DX003 (ip), vehicle: Klucel (hydroxypropylcellulose) (HPC)) was 98 % of control.
For `O=C(O)c1c[nH]c2c(Cl)cccc2c1=O`, the T/C is 100 % of control (dose: 100.0 mg/kg/injection, schedule: Q04DX002 (ip), vehicle: Klucel (hydroxypropylcellulose) (HPC)); 96 % of control (dose: 200.0 mg/kg/injection, schedule: Q04DX002 (ip), vehicle: Klucel (hydroxypropylcellulose) (HPC)); 107 % of control (dose: 400.0 mg/kg/injection, schedule: Q04DX002 (ip), vehicle: Klucel (hydroxypropylcellulose) (HPC)).
Take `CCCCCCCCCCCCCCCCCC(=O)OC1C(CO)OC2C1Oc1nc(=N)ccn12` (stereo not drawn): the T/C is, setting by setting: (dose: 12.5 mg/kg/injection, schedule: Q01DX009 (ip), vehicle: other) 165 % of control; (dose: 25.0 mg/kg/injection, schedule: Q01DX009 (ip), vehicle: other) 190 % of control; (dose: 50.0 mg/kg/injection, schedule: Q01DX009 (ip), vehicle: other) 235 % of control; under setting [10], 283 % of control; under setting [11], 120 % of control.
Regarding `Cn1cc(NC(=O)c2cc(NC(=O)CN=C(N)N)cn2C)cc1C(=O)NCCC(=N)N`, the T/C by setting is: (dose: 6.3 mg/kg/injection, schedule: Q01DX Z (ip), vehicle: saline) 88 % of control; (dose: 12.5 mg/kg/injection, schedule: Q01DX Z (ip), vehicle: saline) 92 % of control.
`Clc1ccc(Cl)c(Nc2ccnc(SCc3ccccc3)n2)c1`: the T/C is 92 % of control (dose: 100.0 mg/kg/injection, schedule: Q01DX Z (ip), vehicle: methylcellulose (MC)) and 88 % of control (dose: 200.0 mg/kg/injection, schedule: Q01DX Z (ip), vehicle: methylcellulose (MC)).
For `CC(C)C1(O)C2C3CCC(C3)C2C(=O)C2C3CCC(C3)C21` (stereo not drawn), the T/C (dose: 50.0 mg/kg/injection, schedule: Q01DX009 (ip), vehicle: saline with Tween-80) was 96 % of control; the T/C under setting [5] was 93 % of control; the T/C under setting [6] is 93 % of control.
As to `C[N+]1(C2CCC3CCCC2C3=O)CCCC1` (stereo not drawn), the T/C was 98 % of control under setting [4] and 106 % of control (dose: 150.0 mg/kg/injection, schedule: Q01DX001 (ip), vehicle: saline).
Regarding `CCCCCCCCCCCCCCCCCC(CCCCCCCCCCCCCCCCC)=NNC(N)=S`, the T/C was 92 % of control under setting [10]; 89 % of control under setting [11]; 97 % of control (dose: 400.0 mg/kg/injection, schedule: Q01DX009 (ip), vehicle: other).
For `O=NN(C(=O)Nc1ccccc1)C1CCCCC1`, the T/C runs as follows: (dose: 18.0 mg/kg/injection, schedule: Q01DX001 (ip), vehicle: carboxymethylcellulose (CMC)) 96 % of control; (dose: 37.0 mg/kg/injection, schedule: Q01DX001 (ip), vehicle: carboxymethylcellulose (CMC)) 94 % of control; (dose: 75.0 mg/kg/injection, schedule: Q01DX001 (ip), vehicle: carboxymethylcellulose (CMC)) 98 % of control; (dose: 100.0 mg/kg/injection, schedule: Q01DX001 (ip), vehicle: carboxymethylcellulose (CMC)) 105 % of control; (dose: 150.0 mg/kg/injection, schedule: Q01DX001 (ip), vehicle: carboxymethylcellulose (CMC)) 102 % of control; (dose: 200.0 mg/kg/injection, schedule: Q01DX001 (ip), vehicle: carboxymethylcellulose (CMC)) 104 % of control. Further, the T/C (dose: 250.0 mg/kg/injection, schedule: Q01DX001 (ip), vehicle: carboxymethylcellulose (CMC)) was 102 % of control.
For the molecule `O=C1NCN(c2ccccc2)C12CCN(CCCS(=O)(=O)c1ccccc1)CC2`, the T/C by setting is: (dose: 100.0 mg/kg/injection, schedule: Q01DX001 (ip), vehicle: Klucel (hydroxypropylcellulose) (HPC)) 93 % of control; (dose: 200.0 mg/kg/injection, schedule: Q01DX001 (ip), vehicle: Klucel (hydroxypropylcellulose) (HPC)) 94 % of control; (dose: 400.0 mg/kg/injection, schedule: Q01DX001 (ip), vehicle: Klucel (hydroxypropylcellulose) (HPC)) 101 % of control.
As for `O=C1C=C(O)C2=C(CCCC2)C1=O`, the T/C (dose: 100.0 mg/kg/injection, schedule: Q01DX001 (ip), vehicle: water) is 96 % of control.
Take `FC(F)(F)c1nc[nH]c1C(F)(F)F`: the T/C was 103 % of control (dose: 6.25 mg/kg/injection, schedule: Q01DX009 (ip), vehicle: water); 97 % of control (dose: 12.5 mg/kg/injection, schedule: Q01DX009 (ip), vehicle: water); 97 % of control (dose: 25.0 mg/kg/injection, schedule: Q01DX009 (ip), vehicle: water).
Regarding `Nc1nnnn1-c1ccc2ccccc2c1`, the T/C runs as follows: under setting [1], 101 % of control; under setting [2], 97 % of control; under setting [3], 101 % of control.

For the origin of these results see PubChem BioAssay AID248 (DTP/NCI, 2004).
